The text below walks through data of patent publication US20210198277A1, “AMINE-SUBSTITUTED ARYL OR HETEROARYL COMPOUNDS” (Epizyme, Inc., priority 2016, published 2021).

In the experiment the target is T1, EHMT2 (Homo sapiens, UniProt Q96KQ7).
T1 construct: host or cells: MDA-MB-231
T1 sequence (Q96KQ7 1-1210): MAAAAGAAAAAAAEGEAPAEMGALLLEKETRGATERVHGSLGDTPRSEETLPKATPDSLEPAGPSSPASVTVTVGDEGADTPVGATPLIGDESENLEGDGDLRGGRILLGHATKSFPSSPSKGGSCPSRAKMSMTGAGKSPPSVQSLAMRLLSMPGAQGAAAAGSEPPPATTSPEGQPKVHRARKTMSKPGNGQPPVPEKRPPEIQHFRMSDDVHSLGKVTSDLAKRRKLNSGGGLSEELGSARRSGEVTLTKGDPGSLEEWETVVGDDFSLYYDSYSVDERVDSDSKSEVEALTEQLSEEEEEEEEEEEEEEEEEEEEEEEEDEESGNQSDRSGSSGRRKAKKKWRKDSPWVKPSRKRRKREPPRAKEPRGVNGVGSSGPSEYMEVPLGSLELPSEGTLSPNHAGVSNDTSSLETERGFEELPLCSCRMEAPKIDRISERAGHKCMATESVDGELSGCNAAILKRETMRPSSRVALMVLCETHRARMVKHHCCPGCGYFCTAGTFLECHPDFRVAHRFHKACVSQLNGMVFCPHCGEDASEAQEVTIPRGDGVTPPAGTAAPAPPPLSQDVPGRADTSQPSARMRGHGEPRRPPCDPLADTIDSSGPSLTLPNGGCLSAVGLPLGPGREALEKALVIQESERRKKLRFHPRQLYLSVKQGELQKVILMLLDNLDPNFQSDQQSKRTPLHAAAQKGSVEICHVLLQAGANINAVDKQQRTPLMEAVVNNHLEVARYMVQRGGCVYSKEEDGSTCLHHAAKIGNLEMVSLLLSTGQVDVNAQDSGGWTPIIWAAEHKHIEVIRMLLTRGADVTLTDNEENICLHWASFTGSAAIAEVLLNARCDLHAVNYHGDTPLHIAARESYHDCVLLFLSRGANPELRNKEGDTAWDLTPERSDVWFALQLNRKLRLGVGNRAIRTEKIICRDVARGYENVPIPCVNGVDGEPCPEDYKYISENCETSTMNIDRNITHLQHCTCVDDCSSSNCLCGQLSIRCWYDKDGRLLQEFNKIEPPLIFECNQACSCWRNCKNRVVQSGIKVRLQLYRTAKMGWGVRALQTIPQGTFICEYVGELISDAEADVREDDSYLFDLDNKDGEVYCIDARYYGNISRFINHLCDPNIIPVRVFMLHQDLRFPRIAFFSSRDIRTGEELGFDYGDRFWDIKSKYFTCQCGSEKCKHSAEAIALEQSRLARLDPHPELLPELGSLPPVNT
The experiment in a line: MDA-MB-231 H3K9me2 in-cell Western assay (EHMT2 ICW). The class given is cell-based. The settings on record: Table III; MDA-MB-231 H3K9me2 in-cell Western; read-out: EHMT2 ICW (IC50 μM). In outline:
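Infrared read-out at 800 and 700 nm (H3K9me2 antibody vs DRAQ5 DNA stain) of fixed MDA-MB-231 cells after 48 h compound treatment at 37 °C. Well ratios were converted to percent inhibition, and IC50 was obtained by variable-slope nonlinear regression on triplicates.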
In general, IC50 refers to the midpoint of a concentration-inhibition curve. Consider `CNc1cc(C)nc(Nc2ccc(OC)c(OCC3CNC3)c2)n1` [Compound 437, N^2-(3-(azetidin-3-ylmethoxy)-4-methoxyphenyl)-N^4,6-dimethylpyrimidine-2,4-diamine], for which the half-inhibitory concentration (IC50) is 1 to 10 µM. For the molecule `CNc1ccnc(Nc2ccc(OC)c(OCCCN3CCC(OC)C3)c2)n1` (centres unmarked) [Compound 283, N^2-(4-methoxy-3-(3-(3-methoxypyrrolidin-1-yl)propoxy)phenyl)-N^4-methylpyrimidine-2,4-diamine], the 50% inhibitory concentration (IC50) was 0.1 to 1 µM. In the case of `CNc1ccnc(Nc2ccc(OC)c(OCCCN3CCC4(COC4)C3)c2)n1` [Compound 284], the concentration for half-maximal inhibition (IC50) is above 10 µM. For `CNc1ccnc(Nc2ccc(OC)c(OCCCN3CC4CC4C3)c2)n1` (centres unmarked) [Compound 298, N^2-(3-(3-(3-azabicyclo[3.1.0]hexan-3-yl)propoxy)-4-methoxyphenyl)-N^4-methylpyrimidine-2,4-diamine] the value was 0.1 to 1 µM; for `CNc1ccnc(Nc2ccc(OC)c(OC[C@H]3CN(C)C[C@@H]3C)c2)n1` (single isomer, unassigned) [Compound 439], 0.1 to 1 µM; for `CNc1cc(C)nc(Nc2ccc(OC)c(OCC3CCN(CC4CC4)CC3)c2)n1` [Compound 436, N^2-(3-((1-(cyclopropylmethyl)piperidin-4-yl)methoxy)-4-methoxyphenyl)-N^4,6-dimethylpyrimidine-2,4-diamine], above 10 µM. Regarding `CNc1cc(C)nc(Nc2ccc(OC)c(O[C@H]3C[C@@H](CN(C)C)C3)c2)n1` [Compound 318, N^2-(3-((1s,3s)-3-((dimethylamino)methyl)cyclobutoxy)-4-methoxyphenyl)-N^4,6-dimethylpyrimidine-2,4-diamine], the IC50 was above 10 µM. The value for `CNc1ccnc(Nc2ccc(OC)c(OC[C@@H](O)CN3CCCC3)c2)n1` [Compound 300, (S)-1-(2-methoxy-5-((4-(methylamino)pyrimidin-2-yl)amino)phenoxy)-3-(pyrrolidin-1-yl)propan-2-ol] was 0.1 to 1 µM; that for `CNc1ccnc(Nc2ccc(OC)c(OCCCN(C)CC3CC3)c2)n1` [Compound 424, N^2-(3-(3-((cyclopropylmethyl)(methyl)amino)propoxy)-4-methoxyphenyl)-N^4-methylpyrimidine-2,4-diamine] was 1 to 10 µM. For `CCN1CC(COc2cc(Nc3nc(C)cc(NC)n3)ccc2OC)C1` [Compound 444] the value was 0.1 to 1 µM; for `CNc1cc(C)nc(Nc2ccc(OC)c(OCC3CCN(C4COC4)C3)c2)n1` (centres unmarked) [Compound 449, N^2-(4-methoxy-3-((1-(oxetan-3-yl)pyrrolidin-3-yl)methoxy)phenyl)-N^4,6-dimethylpyrimidine-2,4-diamine], 0.1 to 1 µM; for `CNc1ccnc(Nc2ccc(OC)c(OCC3CCCN3C)c2)n1` (centres unmarked) [Compound 289, N^2-(4-methoxy-3-((1-methylpyrrolidin-2-yl)methoxy)phenyl)-N^4-methylpyrimidine-2,4-diamine], 0.1 to 1 µM. For `CNc1ccnc(Nc2cccc(N3CCC(N)C3)c2)n1` (centres unmarked) [Compound 297] the value was above 10 µM; for `CNc1ccnc(Nc2ccc(OC)c(OCCOC3CCCC3)c2)n1` [Compound 440, N^2-(3-(2-(cyclopentyloxy)ethoxy)-4-methoxyphenyl)-N^4-methylpyrimidine-2,4-diamine], above 10 µM; for `CNc1cc(C)nc(Nc2ccc(OC)c(OCC3CCN(C)CC3)c2)n1` [Compound 435, N^2-(4-methoxy-3-((1-methylpiperidin-4-yl)methoxy)phenyl)-N^4,6-dimethylpyrimidine-2,4-diamine], 1 to 10 µM. For the molecule `CNc1cc(C)nc(Nc2ccc(OC)c(OC3CCN(CC4CC4)CC3)c2)n1` [Compound 443], the half-inhibitory concentration (IC50) is above 10 µM.

For `CNc1ccnc(Nc2cccc(OCC(F)(F)CN3CCCC3)c2)n1` [Compound 277, N^2-(3-(2,2-difluoro-3-(pyrrolidin-1-yl)propoxy)phenyl)-N^4-methylpyrimidine-2,4-diamine], the IC50 is above 10 µM.
